Reference: ChEMBL document CHEMBL3992485 (Medchemcomm, 2016)
Activity calls are given as the source filed them. The calls are words filed in the database; no cut-off is given here.

Tests used:
HeLa [1] = assay: Induction of apoptosis in human HeLa cells assessed as necrotic cells at 0.2 uM after 24 hrs by Annexin-V-FITC/propidium iodide staining based flow cytometry (reference value: 0.084%); format: functional
HeLa [2] = assay: Induction of apoptosis in human HeLa cells assessed as early apoptotic cells at 0.5 uM after 12 hrs by Annexin-V-FITC/propidium iodide staining based flow cytometry (reference value: 6.02%); format: functional
HeLa [3] = assay: Cell cycle arrest in human HeLa cells assessed as accumulation at G2/M phase at 0.5 uM by propidium iodide staining based flow cytometry; format: functional; details: TDE = time-dependent effect
HeLa [4] = assay: Induction of apoptosis in human HeLa cells assessed as late apoptotic cells at 0.5 uM after 24 hrs by Annexin-V-FITC/propidium iodide staining based flow cytometry (reference value: 2.64%); format: functional
HeLa [5] = assay: Induction of apoptosis in human HeLa cells assessed as early apoptotic cells at 0.5 uM after 36 hrs by Annexin-V-FITC/propidium iodide staining based flow cytometry (reference value: 6.02%); format: functional
HeLa [6] = assay: Induction of apoptosis in human HeLa cells assessed as viable cells at 0.1 uM after 24 hrs by Annexin-V-FITC/propidium iodide staining based flow cytometry (reference value: 94.4%); format: functional; details: read-out: Activity
HeLa [7] = assay: Induction of apoptosis in human HeLa cells assessed as viable cells at 0.5 uM after 12 hrs by Annexin-V-FITC/propidium iodide staining based flow cytometry (reference value: 91%); format: functional; details: read-out: Activity
HeLa [8] = assay: Induction of apoptosis in human HeLa cells assessed as viable cells at 0.2 uM after 24 hrs by Annexin-V-FITC/propidium iodide staining based flow cytometry (reference value: 94.4%); format: functional; details: read-out: Activity
HeLa [9] = assay: Induction of apoptosis in human HeLa cells assessed as necrotic cells at 0.5 uM after 24 hrs by Annexin-V-FITC/propidium iodide staining based flow cytometry (reference value: 0.35%); format: functional
HeLa [10] = assay: Induction of apoptosis in human HeLa cells assessed as viable cells at 0.5 uM after 36 hrs by Annexin-V-FITC/propidium iodide staining based flow cytometry (reference value: 91%); format: functional; details: read-out: Activity
HeLa [11] = assay: Induction of apoptosis in human HeLa cells assessed as late apoptotic cells at 0.2 uM after 24 hrs by Annexin-V-FITC/propidium iodide staining based flow cytometry (reference value: 3.1%); format: functional
HeLa [12] = assay: Induction of apoptosis in human HeLa cells assessed as late apoptotic cells at 0.4 uM after 24 hrs by Annexin-V-FITC/propidium iodide staining based flow cytometry (reference value: 3.1%); format: functional
HeLa [13] = assay: Induction of apoptosis in human HeLa cells assessed as necrotic cells at 0.5 uM after 36 hrs by Annexin-V-FITC/propidium iodide staining based flow cytometry (reference value: 0.35%); format: functional
HepG2 = assay: Antiproliferative activity against human HepG2 cells measured after 24 hrs by MTT assay; format: functional, cell-based; details: HepG2, 24 h
HeLa [14] = assay: Inhibition of microtubule polymerization in human HeLa cells assessed as abnormal chromatin distribution at 0.2 uM after 24 hrs by DAPI staining based confocal microscopic analysis; format: cell-based
HeLa [15] = assay: Cell cycle arrest in human HeLa cells assessed as accumulation at G1 phase at 0.1 uM after 24 hrs by propidium iodide staining based flow cytometry (reference value: 85.81%); format: functional
HeLa [16] = assay: Induction of apoptosis in human HeLa cells assessed as early apoptotic cells at 0.1 uM after 24 hrs by Annexin-V-FITC/propidium iodide staining based flow cytometry (reference value: 2.41%); format: functional
HeLa [17] = assay: Inhibition of microtubule polymerization in human HeLa cells assessed as effect on microtubule organization at 0.2 uM after 24 hrs by DAPI staining based confocal microscopic analysis; format: cell-based
HeLa [18] = assay: Cell cycle arrest in human HeLa cells assessed as accumulation at S phase at 0.5 uM after 24 hrs by propidium iodide staining based flow cytometry (reference value: 33.78%); format: functional
HeLa [19] = assay: Cell cycle arrest in human HeLa cells assessed as accumulation at G1 phase at 0.4 uM after 12 hrs by propidium iodide staining based flow cytometry (reference value: 85.81%); format: functional
HeLa [20] = assay: Cell cycle arrest in human HeLa cells assessed as accumulation at S phase at 0.5 uM after 36 hrs by propidium iodide staining based flow cytometry (reference value: 33.78%); format: functional
HeLa [21] = assay: Induction of apoptosis in human HeLa cells assessed as late apoptotic cells at 0.8 uM after 24 hrs by Annexin-V-FITC/propidium iodide staining based flow cytometry (reference value: 3.1%); format: functional
HeLa [22] = assay: Inhibition of microtubule polymerization in human HeLa cells at 0.2 uM after 24 hrs by DAPI staining based confocal microscopic analysis; format: cell-based
HeLa [23] = assay: Induction of apoptosis in human HeLa cells assessed as necrotic cells at 0.1 uM after 24 hrs by Annexin-V-FITC/propidium iodide staining based flow cytometry (reference value: 0.084%); format: functional
HeLa [24] = assay: Cell cycle arrest in human HeLa cells assessed as accumulation at G1 phase at 0.2 uM after 12 hrs by propidium iodide staining based flow cytometry (reference value: 85.81%); format: functional
HeLa [25] = assay: Cell cycle arrest in human HeLa cells assessed as accumulation at S phase at 0.5 uM after 12 hrs by propidium iodide staining based flow cytometry (reference value: 33.78%); format: functional

CCn1cc(C(=O)N2CCN(S(=O)(=O)c3c(C(C)C)cc(C(C)C)cc3C(C)C)CC2)c2ccccc21
Activity (HeLa [1]): 0.098%
Activity (HeLa [2]): 8.12%
Activity (HeLa [3]): Tde
Activity (HeLa [4]): 6.84%
Activity (HeLa [5]): 25.3%
viability at 0.1 µM (HeLa [6]): 85.1%
viability at 0.5 µM (HeLa [7]): 87.9%
viability at 0.2 µM (HeLa [8]): 71%
Activity (HeLa [9]): 0.303%
viability at 0.5 µM (HeLa [10]): 53.1%
Activity (HeLa [11]): 7.24%
Activity (HeLa [12]): 12.8%
Activity (HeLa [13]): 0.329%
IC50 (HepG2): 490 nM
inhibition (HeLa [14]): Active
Activity (HeLa [15]): 54.97%
Activity (HeLa [16]): 9%
inhibition (HeLa [17]): Active
Activity (HeLa [18]): 55.73%
Activity (HeLa [19]): 22.09%
Activity (HeLa [20]): 53.25%
Activity (HeLa [21]): 22.4%
inhibition (HeLa [22]): Active
Activity (HeLa [23]): 0.141%
Activity (HeLa [24]): 31.86%
Activity (HeLa [25]): 51.97%
